Article PMC6934184, “Selective DNA-PKcs inhibition extends the therapeutic index of localized radiotherapy and chemotherapy” (The Journal of Clinical Investigation, 2019)

Target: T1, EIF2AK2 (PKR) (Homo sapiens, UniProt P19525)
T1 construct: purchased Thermo Fisher Scientific (Life Technologies) SelectScreen
Experiment: SelectScreen LanthaScreen
Format: binding
Conditions: 1 µM
Method in brief: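 Percent values come from Thermo SelectScreen profiling of NU5455, combining activity and binding assays. CSF1R was run in Z'LYTE format at Km app ATP, and CAMK1 in Adapta format with ATP listed at 10.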

T1 sequence (P19525 whole entry): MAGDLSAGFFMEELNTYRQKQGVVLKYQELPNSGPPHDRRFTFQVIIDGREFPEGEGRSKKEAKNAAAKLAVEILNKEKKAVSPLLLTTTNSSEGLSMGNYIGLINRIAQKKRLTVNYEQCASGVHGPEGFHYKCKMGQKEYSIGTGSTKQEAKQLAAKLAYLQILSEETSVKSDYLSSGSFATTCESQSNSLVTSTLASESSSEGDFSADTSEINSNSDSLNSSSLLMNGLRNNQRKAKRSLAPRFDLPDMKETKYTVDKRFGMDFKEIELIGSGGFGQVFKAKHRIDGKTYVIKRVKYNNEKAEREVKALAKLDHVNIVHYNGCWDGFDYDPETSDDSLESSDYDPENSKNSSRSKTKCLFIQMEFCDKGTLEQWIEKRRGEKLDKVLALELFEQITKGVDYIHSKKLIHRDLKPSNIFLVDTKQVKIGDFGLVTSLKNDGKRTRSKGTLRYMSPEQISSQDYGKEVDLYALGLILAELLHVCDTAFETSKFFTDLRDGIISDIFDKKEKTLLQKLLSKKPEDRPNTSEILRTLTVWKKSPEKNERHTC

Q: With CN(C(=O)CN1CCOCC1)c1ccc2sc3c(-c4cccc5c(=O)cc(N6CC7CCC(C6)O7)oc45)cccc3c2c1 [NU5455] as the compound, how does the “% displacement” value read?
A: 13.3%
